Reference: ChEMBL document CHEMBL4371076 (J Med Chem, 2019)
Active and inactive are the calls of the source.

Tests used:
Cytochrome P450 2C8 [1] = biological target: T1, Cytochrome P450 2C8 (Homo sapiens, UniProt P10632); experiment: Inhibition of CYP2C8 in human liver microsomes; format: ADME
T1 sequence (P10632 whole entry): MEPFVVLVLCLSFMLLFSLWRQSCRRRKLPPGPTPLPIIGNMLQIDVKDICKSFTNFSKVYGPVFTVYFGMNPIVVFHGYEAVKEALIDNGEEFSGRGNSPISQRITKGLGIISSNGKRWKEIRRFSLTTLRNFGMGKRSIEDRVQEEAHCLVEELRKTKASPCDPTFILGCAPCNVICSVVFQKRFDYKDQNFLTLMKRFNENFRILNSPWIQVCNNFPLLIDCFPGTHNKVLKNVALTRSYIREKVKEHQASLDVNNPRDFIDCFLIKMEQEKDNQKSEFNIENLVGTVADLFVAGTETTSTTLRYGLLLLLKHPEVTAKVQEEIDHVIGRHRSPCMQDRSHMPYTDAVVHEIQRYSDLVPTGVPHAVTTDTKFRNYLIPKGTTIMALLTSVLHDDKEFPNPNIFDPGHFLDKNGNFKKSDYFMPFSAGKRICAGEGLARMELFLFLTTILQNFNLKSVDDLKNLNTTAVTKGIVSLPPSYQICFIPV

[2] = biological target: Sodium channel protein type 5 subunit alpha (Homo sapiens, UniProt Q14524); experiment: Inhibition of human Nav1.5 expressed in HEK293 cells after 600 secs at -50 mV holding potential by ion works barracuda population patch clamp method; format: cell-based
[3] = Metabolic stability in mouse liver microsomes assessed as parent compound remaining at 0.5 uM after 10 mins; format: ADME, Microsome; conditions: read-out: Stability
[4] = Fraction unbound in mouse DRG neurons; format: ADME, cell-based, DRG neuron
[5] = Permeability from apical to basolateral side in human Caco2 cells; format: ADME, cell-based; conditions: Caco-2, read-out: permeability
Mus musculus [6] = experiment: Analgesic activity in CD1 mouse model of CFA-induced thermal hyperalgesia assessed as reduction in thermal response latency at 30 mg/kg, ip administered 72 hrs post CFA challenge and measured at 60 mins post dose by Hargreave's test; format: functional, organism-based
[7] = Plasma concentration in mouse model of mechanoreceptor-mediated afferent transmission at 30 mg/kg, ip after 2 hrs; format: ADME, organism-based
[8] = biological target: T2, Sodium channel protein type 9 subunit alpha (Homo sapiens, UniProt Q15858); experiment: Inhibition of recombinant human Nav1.7 expressed in HEK293 cells at -70 mV holding potential by patch clamp electrophysiology method; format: cell-based
Target sequence in this assay (Q15858 whole entry): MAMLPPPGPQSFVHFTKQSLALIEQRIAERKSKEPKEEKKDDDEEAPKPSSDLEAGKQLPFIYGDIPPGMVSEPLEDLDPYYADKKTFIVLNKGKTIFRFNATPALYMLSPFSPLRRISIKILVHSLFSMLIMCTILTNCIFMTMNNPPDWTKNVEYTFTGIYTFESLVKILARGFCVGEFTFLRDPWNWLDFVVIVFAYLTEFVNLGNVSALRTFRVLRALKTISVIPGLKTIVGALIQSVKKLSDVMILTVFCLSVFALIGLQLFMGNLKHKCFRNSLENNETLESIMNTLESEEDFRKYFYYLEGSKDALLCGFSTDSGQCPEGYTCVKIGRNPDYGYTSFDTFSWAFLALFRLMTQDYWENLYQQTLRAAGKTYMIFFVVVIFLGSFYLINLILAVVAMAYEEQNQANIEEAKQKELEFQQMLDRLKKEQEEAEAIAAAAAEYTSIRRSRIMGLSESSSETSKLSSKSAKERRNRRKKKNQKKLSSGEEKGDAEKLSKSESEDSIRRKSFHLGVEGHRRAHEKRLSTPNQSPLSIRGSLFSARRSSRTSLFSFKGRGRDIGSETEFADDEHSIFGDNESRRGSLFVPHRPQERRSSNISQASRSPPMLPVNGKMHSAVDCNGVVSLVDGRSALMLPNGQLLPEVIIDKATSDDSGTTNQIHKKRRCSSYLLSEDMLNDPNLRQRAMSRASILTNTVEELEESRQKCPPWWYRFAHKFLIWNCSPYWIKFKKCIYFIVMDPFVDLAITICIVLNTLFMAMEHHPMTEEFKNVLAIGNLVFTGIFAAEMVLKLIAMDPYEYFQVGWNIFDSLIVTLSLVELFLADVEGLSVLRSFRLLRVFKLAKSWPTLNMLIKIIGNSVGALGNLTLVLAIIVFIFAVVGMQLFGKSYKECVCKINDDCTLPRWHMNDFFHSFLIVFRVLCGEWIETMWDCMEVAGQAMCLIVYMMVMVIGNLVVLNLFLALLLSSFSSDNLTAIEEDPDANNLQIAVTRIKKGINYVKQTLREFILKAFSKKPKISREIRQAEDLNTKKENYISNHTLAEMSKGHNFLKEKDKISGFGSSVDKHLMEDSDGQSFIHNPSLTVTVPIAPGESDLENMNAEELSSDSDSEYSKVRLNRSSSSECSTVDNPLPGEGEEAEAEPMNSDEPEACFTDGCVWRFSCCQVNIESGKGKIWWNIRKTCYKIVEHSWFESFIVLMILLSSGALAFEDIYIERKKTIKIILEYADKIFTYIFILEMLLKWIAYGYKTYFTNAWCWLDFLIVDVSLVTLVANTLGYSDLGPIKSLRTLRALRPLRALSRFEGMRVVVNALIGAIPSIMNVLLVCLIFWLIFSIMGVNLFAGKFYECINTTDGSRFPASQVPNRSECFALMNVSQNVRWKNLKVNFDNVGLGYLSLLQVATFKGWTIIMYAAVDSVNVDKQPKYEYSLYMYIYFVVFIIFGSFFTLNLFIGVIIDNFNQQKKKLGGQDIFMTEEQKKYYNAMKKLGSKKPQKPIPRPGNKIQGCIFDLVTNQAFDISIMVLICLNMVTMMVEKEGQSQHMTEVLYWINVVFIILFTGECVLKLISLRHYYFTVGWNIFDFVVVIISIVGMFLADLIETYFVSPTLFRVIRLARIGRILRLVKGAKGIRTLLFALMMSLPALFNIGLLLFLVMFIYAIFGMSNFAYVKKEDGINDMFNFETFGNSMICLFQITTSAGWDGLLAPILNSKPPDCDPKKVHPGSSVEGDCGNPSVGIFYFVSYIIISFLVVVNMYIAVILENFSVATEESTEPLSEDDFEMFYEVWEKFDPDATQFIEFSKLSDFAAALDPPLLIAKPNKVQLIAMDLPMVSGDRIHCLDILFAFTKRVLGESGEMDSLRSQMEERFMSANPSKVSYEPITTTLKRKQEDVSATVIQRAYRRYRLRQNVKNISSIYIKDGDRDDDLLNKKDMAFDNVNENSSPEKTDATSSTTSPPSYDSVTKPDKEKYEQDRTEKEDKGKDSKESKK

[9] = Metabolic stability in human liver microsomes assessed as parent compound remaining at 0.5 uM after 10 mins; format: ADME, Microsome; conditions: read-out: Stability
[10] = Ratio of unbound plasma concentration in CD1 mouse model of CFA-induced thermal hyperalgesia at 3 to 30 mg/kg, ip to IC50 for recombinant mouse Nav1.7 expressed in HEK293 cells at -70 mV holding potential by patch clamp electrophysiology method; format: ADME, organism-based; conditions: in vivo
[11] = Permeability from basolateral to apical side in human Caco2 cells; format: ADME, cell-based; conditions: Caco-2, read-out: permeability
[12] = Ratio of fraction unbound in mouse DRG neurons to IC50 for mouse DRG Nav1.7 at -70 mV holding potential by patch clamp electrophysiology method
Mus musculus [13] = experiment: Reduction in mechanoreceptor-mediated afferent transmission in mouse assessed as effect on sural nerve mechanosensitivity at 30 mg/kg, ip measured at 5 to 120 mins post dose at 1.6 mN threshold pressure; format: functional, organism-based
[14] = biological target: T3, Nuclear receptor subfamily 1 group I member 2 (Homo sapiens, UniProt O75469); experiment: Inhibition of PXR (unknown origin); format: ADME
T3 sequence (O75469 whole entry): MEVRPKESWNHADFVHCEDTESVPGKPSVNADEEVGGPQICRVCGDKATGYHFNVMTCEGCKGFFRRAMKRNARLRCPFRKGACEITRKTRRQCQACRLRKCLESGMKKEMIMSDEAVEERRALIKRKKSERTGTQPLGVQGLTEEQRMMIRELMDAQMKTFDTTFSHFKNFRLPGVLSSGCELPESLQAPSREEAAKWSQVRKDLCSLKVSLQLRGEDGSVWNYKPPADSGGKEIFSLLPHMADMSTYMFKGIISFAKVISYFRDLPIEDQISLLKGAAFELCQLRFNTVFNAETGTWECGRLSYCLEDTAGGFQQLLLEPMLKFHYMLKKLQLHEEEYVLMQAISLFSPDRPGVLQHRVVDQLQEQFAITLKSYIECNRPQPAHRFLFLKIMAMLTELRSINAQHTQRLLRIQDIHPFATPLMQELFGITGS

Mus musculus [15] = experiment: Reduction in mechanoreceptor-mediated afferent transmission in mouse assessed as effect on sural nerve mechanosensitivity by measuring decrease in mechanically elicited afferent firing at 30 mg/kg, ip measured at 90 to 120 mins post dose at 98 to 980 mN threshold pressure; format: functional, organism-based
[16] = Metabolic stability in rat liver microsomes assessed as parent compound remaining at 0.5 uM after 10 mins; format: ADME, Microsome; conditions: read-out: Stability
Cytochrome P450 2C8 [17] = biological target: T1, Cytochrome P450 2C8; experiment: Time-dependant inhibition of CYP2C8 in human liver microsomes; format: ADME
Cytochrome P450 2C9 = Cytochrome P450 2C9 (Homo sapiens, UniProt P11712); experiment: Time-dependant inhibition of CYP2C9 in human liver microsomes; format: ADME
Cytochrome P450 2C9, sequence (P11712 whole entry): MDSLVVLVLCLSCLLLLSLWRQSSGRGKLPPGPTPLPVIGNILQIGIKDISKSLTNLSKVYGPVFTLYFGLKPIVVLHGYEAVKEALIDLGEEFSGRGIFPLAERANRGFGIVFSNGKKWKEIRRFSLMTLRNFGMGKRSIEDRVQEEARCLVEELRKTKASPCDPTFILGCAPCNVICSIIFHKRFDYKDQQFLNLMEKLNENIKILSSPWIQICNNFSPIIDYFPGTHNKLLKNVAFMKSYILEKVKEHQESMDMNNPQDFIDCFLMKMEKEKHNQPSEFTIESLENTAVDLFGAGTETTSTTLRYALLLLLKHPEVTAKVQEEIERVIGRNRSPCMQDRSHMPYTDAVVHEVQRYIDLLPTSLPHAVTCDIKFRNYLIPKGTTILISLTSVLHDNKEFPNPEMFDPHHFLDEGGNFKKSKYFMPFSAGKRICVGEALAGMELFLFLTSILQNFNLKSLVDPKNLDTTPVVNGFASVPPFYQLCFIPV

[18] = biological target: T2, Sodium channel protein type 9 subunit alpha; experiment: Inhibition of recombinant human Nav1.7 expressed in HEK293 cells assessed as association time constant at -70 mV holding potential by patch clamp electrophysiology method; format: cell-based
Target sequence in this assay (Q15858 whole entry, looked up): as the sequence (Q15858 whole entry) above

Mus musculus [19] = experiment: Analgesic activity in CD1 mouse model of CFA-induced thermal hyperalgesia assessed as reduction in thermal response latency at 30 mg/kg, ip administered 72 hrs post CFA challenge and measured at 180 mins post dose by Hargreave's test; format: functional, organism-based
[20] = Permeability of the compound at pH 7.4 by PAMPA; format: ADME; conditions: read-out: permeability
Cytochrome P450 2C19 = Cytochrome P450 2C19 (Homo sapiens, UniProt P33261); experiment: Inhibition of CYP2C19 in human liver microsomes; format: ADME
[21] = Fraction unbound in human plasma; format: ADME, cell-free
[22] = Efflux ratio of permeability in human Caco2 cells; format: ADME, cell-based; conditions: Caco-2
[23] = biological target: T4, Sodium channel protein type 9 subunit alpha (Mus musculus, UniProt Q62205); experiment: Inhibition of recombinant mouse Nav1.7 expressed in HEK293 cells at -70 mV holding potential by patch clamp electrophysiology method; format: cell-based
T4 sequence (Q62205 whole entry): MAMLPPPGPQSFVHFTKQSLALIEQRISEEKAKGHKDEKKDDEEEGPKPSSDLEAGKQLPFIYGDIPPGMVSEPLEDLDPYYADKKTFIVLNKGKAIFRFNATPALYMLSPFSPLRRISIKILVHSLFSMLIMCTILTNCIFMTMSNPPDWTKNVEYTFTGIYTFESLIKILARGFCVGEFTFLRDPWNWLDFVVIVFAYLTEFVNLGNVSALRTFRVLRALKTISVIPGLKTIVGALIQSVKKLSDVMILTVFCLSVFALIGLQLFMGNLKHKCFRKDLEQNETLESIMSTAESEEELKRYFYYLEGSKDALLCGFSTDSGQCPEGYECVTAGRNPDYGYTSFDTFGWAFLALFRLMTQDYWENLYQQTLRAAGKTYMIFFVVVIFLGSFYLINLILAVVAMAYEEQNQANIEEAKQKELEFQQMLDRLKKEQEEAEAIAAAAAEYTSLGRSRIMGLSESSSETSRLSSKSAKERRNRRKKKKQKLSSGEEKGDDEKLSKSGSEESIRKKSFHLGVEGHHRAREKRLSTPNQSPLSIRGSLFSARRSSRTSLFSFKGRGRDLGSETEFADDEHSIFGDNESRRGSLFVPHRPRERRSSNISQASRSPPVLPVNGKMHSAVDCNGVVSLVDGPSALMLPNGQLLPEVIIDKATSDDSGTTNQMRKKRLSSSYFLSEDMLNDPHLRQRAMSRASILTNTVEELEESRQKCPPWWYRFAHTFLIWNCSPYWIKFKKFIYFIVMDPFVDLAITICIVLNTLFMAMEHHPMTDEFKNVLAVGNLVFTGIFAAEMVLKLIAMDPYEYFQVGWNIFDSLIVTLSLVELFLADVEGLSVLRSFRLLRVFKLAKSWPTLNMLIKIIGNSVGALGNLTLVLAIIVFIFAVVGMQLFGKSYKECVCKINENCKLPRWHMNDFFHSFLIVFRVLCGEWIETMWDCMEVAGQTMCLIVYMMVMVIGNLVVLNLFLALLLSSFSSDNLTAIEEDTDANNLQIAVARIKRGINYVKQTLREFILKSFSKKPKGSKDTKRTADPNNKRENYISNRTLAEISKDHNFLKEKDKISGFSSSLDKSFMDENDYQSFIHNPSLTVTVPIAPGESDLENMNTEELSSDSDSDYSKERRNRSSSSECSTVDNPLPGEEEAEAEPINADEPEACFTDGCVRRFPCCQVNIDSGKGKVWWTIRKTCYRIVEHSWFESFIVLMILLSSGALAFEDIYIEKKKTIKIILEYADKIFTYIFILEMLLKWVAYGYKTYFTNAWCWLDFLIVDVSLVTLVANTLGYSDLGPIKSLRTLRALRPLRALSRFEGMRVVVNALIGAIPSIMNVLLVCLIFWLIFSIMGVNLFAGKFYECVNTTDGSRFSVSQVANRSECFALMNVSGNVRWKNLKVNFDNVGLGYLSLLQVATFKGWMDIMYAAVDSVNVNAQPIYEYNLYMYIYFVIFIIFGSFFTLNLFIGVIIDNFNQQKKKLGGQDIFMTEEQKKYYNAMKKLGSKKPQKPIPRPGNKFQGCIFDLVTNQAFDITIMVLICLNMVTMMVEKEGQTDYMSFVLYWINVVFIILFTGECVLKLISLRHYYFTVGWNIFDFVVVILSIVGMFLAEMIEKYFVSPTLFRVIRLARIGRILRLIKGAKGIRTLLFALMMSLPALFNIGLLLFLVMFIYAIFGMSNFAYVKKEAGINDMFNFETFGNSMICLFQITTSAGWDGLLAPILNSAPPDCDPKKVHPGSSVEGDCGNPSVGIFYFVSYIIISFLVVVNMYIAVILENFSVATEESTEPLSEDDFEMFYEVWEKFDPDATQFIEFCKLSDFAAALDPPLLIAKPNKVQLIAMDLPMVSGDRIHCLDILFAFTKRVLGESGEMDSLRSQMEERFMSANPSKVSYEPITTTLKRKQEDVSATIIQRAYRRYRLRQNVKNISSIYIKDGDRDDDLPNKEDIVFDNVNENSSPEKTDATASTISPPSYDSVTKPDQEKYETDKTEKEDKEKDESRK

[24] = biological target: T4, Sodium channel protein type 9 subunit alpha; experiment: Inhibition of Nav1.7 in mouse DRG neurons at -70 mV holding potential by patch clamp electrophysiology method
[25] = Plasma concentration in CD1 mouse model of CFA-induced thermal hyperalgesia at 3 to 30 mg/kg, ip; format: ADME, organism-based; conditions: in vivo
Cytochrome P450 3A4 = Cytochrome P450 3A4 (Homo sapiens, UniProt P08684); experiment: Inhibition of CYP3A4 in human liver microsomes; format: ADME
Cytochrome P450 3A4, sequence (P08684 whole entry): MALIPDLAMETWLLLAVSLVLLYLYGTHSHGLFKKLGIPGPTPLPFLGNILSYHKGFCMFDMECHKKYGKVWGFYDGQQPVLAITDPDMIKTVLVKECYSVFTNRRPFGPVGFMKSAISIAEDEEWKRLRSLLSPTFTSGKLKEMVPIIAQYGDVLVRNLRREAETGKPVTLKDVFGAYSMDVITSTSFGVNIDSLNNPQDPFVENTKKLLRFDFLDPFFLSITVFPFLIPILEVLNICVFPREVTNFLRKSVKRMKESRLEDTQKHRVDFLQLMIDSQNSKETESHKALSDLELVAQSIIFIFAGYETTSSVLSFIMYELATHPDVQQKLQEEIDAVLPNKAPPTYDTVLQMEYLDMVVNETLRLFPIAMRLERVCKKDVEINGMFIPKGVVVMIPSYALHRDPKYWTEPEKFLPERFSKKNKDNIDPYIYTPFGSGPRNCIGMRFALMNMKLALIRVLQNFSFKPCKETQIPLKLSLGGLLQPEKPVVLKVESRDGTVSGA

Row | SMILES | IC50 (Cytochrome P450 2C8 [1]) | IC50 [2] | remaining at 10 min, 0.5 µM [3] | fraction unbound [4] | Papp A→B [5] | Activity (Mus musculus [6]) | concentration at 2 h [7] | IC50 [8] | remaining at 10 min, 0.5 µM [9] | Ratio [10] | Papp B→A [11] | Ratio [12] | Activity (Mus musculus [13]) | IC50 [14] | Activity (Mus musculus [15]) | remaining at 10 min, 0.5 µM [16] | TDI (Cytochrome P450 2C8 [17]) | TDI (Cytochrome P450 2C9) | TIME [18] | Activity (Mus musculus [19]) | also measured
1 | CC(C)COc1ncc(-c2cn(C)c3cc(C(=O)NS(C)(=O)=O)ccc23)cc1Cl | 1000 nM | 19000 nM | 100% | 0.035 | < 1.5 ×10⁻⁶ cm/s | Active | 89 µM | 8 nM | 95% | 4 to 5 | 16.8 ×10⁻⁶ cm/s | 8.7 | inactive | > 50000 nM | Active | 66% | Not Active | Not Active | 0.00267 h | inactive | Papp [20]: 21.6 ×10⁻⁶ cm/s; IC50 (Cytochrome P450 2C19): 28000 nM; fraction unbound [21]: < 0.001; efflux ratio [22]: > 5.5; IC50 [23]: 35 nM; IC50 [24]: 11 nM; concentration [25]: 63 µM; IC50 (Cytochrome P450 3A4): > 40000 nM
2 | CC(C)COc1ccc(-c2cn(C)c3cc(C(=O)NS(C)(=O)=O)c(F)cc23)cn1 | 1000 nM | 16000 nM | 99% | 0.085 | 6.1 ×10⁻⁶ cm/s | inactive | 57 µM | 25 nM | 98% | 4 to 5 | 18.6 ×10⁻⁶ cm/s | 5.5 | inactive | > 50000 nM | Active | 98% | Not Active | Not Active | 0.00336 h | inactive | Papp [20]: 16.4 ×10⁻⁶ cm/s; IC50 (Cytochrome P450 2C19): 4000 nM; fraction unbound [21]: 0.008; efflux ratio [22]: 3.1; IC50 [23]: 115 nM; IC50 [24]: 14 nM; concentration [25]: 38 µM; IC50 (Cytochrome P450 3A4): 15000 nM
